Among the data in PubChem BioAssay (NCI) are GI50 and TGI values, retold here.

“And” between values parts separate entries of the source, which are not always exact repeats. Equal entries are not always repeated.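 Cells were grown in 96-well plates and exposed to each compound for 48 hours at five concentrations; endpoints were interpolated linearly between bracketing concentrations, or set to the highest concentration if not reached. GI50: concentration for 50% inhibition of growth. TGI: concentration producing complete growth inhibition.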

Some test systems named below: DMS 114 small cell lung; DMS 273 small cell lung; HCC-2998 colon; KM20L2 colon; LXFL 529 NSCLC; RPMI-8226 leukemia; RXF 393 renal; SK-MEL-28 melanoma; SNB-78 CNS; XF 498 CNS.
What all share (test): NCI anticancer screen, dose series, 48 h

As to `COc1cc([C@@H]2c3cc4c(c(O)c3C[C@H]3COC(=O)[C@@H]32)OCO4)cc(OC)c1O`, the GI50 in the assay with DMS 114 small cell lung was 0.00231 µM; in the assay with DMS 273 small cell lung, 0.00198 µM; in the assay with HCC-2998 colon it was 0.0283 µM; with KM20L2 colon it was 0.0105 µM and 0.0332 µM; in the assay with RPMI-8226 leukemia, 0.0041 µM; in the assay with RXF 393 renal, 0.00215 µM. In the assay on SNB-78 CNS, the GI50 was 0.00309 µM. Further, the TGI in the assay on DMS 114 small cell lung is 0.00546 µM; with HCC-2998 colon, 2 µM; with KM20L2 colon, 0.0279 µM and 0.059 µM; in the assay on LXFL 529 NSCLC, 0.00859 µM; with RPMI-8226 leukemia, 49.1 µM; with SK-MEL-28 melanoma it was over 200 µM. The TGI was over 200 µM in the assay on SNB-78 CNS and 0.702 µM with XF 498 CNS.

As for `CSc1ccc2c(cc1=O)[C@@H](NC(=O)c1ccc(F)cc1)CCc1cc(O)c(O)c(O)c1-2`, the TGI with DMS 114 small cell lung, with DMS 273 small cell lung, with HCC-2998 colon, in the assay on KM20L2 colon, in the assay with LXFL 529 NSCLC and in the assay with RPMI-8226 leukemia was over 100 µM throughout. Also, the TGI with RXF 393 renal, in the assay with SK-MEL-28 melanoma and in the assay on SNB-78 CNS was over 100 µM each time.

As to `Cc1cc(NCCCCCCNc2cc(C)nc3ccc(Cl)cc23)c2cc(Cl)ccc2n1`, the TGI was 36 µM with DMS 114 small cell lung; 42.1 µM in the assay with DMS 273 small cell lung; 30.3 µM in the assay with HCC-2998 colon; 32.4 µM with KM20L2 colon; over 100 µM with LXFL 529 NSCLC; over 100 µM in the assay with RPMI-8226 leukemia. In addition, the TGI in the assay on RXF 393 renal stood at 30.6 µM; in the assay with SK-MEL-28 melanoma, 32 µM; in the assay with SNB-78 CNS, 56.8 µM; with XF 498 CNS, 32 µM.

`COc1cc(C=O)c(-c2cc3c(cc2C=O)OCO3)c(OC)c1OC`: the TGI with DMS 114 small cell lung was over 290 µM; in the assay with DMS 273 small cell lung it was over 290 µM; in the assay with HCC-2998 colon, over 290 µM; in the assay with KM20L2 colon it was 147 µM; with LXFL 529 NSCLC, over 290 µM; in the assay on RPMI-8226 leukemia, over 290 µM. Further, the TGI was 154 µM in the assay on RXF 393 renal and over 290 µM with SK-MEL-28 melanoma.

`O=C1NN(c2ccccc2)C(=O)C2C3c4ccccc4C(c4ccccc43)C12` (stereo not drawn): the TGI in the assay on HCC-2998 colon, with RPMI-8226 leukemia, in the assay with RXF 393 renal and in the assay on SK-MEL-28 melanoma was over 100 µM each time.

Take `CCNc1ncnc2n[nH]nc12`: the TGI in the assay with HCC-2998 colon, in the assay on RPMI-8226 leukemia, with RXF 393 renal and in the assay on SK-MEL-28 melanoma was over 100 µM throughout.

For the molecule `N=c1oc2c(Cl)cc(Cl)cc2cc1C(=O)Nc1ccccn1`, the TGI with HCC-2998 colon is over 100 µM; in the assay with RPMI-8226 leukemia, 60.8 µM; with RXF 393 renal, 47.7 µM; in the assay on SK-MEL-28 melanoma, over 100 µM.

With `CCNCCNC(=O)c1ccc(Br)cc1`, the TGI in the assay on HCC-2998 colon, in the assay with RPMI-8226 leukemia, in the assay on RXF 393 renal and in the assay on SK-MEL-28 melanoma was over 100 µM each time.

For the molecule `CC(=O)OCc1cn(S(=O)(=O)c2ccc(C)cc2)cn1`, the TGI in the assay with HCC-2998 colon, in the assay with RPMI-8226 leukemia, with RXF 393 renal and with SK-MEL-28 melanoma was over 100 µM in each case.

As to `C/C(=N/N)c1ccc2[nH]c3c(C)cc([N+](=O)[O-])c(C)c3c2c1`, the TGI in the assay on DMS 114 small cell lung came out at 25.8 µM; in the assay with DMS 273 small cell lung, 17.4 µM; with HCC-2998 colon, 31.6 µM; in the assay with RPMI-8226 leukemia, 64 µM; with SK-MEL-28 melanoma it was 24.5 µM; in the assay on XF 498 CNS, 24.7 µM.

Take `OCSc1nn(CO)c(=S)s1`: the TGI with HCC-2998 colon turned out to be 43.3 µM; in the assay on RPMI-8226 leukemia, 70.6 µM; with RXF 393 renal, 34.3 µM; with SK-MEL-28 melanoma it was 49.9 µM.

`CCOP(=O)(OCC)/C(C#N)=C/c1c(C)[nH]c2ccccc12`: the TGI with HCC-2998 colon, in the assay on RPMI-8226 leukemia, in the assay on RXF 393 renal and in the assay on SK-MEL-28 melanoma was over 100 µM throughout.

Take `COc1cc2c(cc1O)C(C)Cc1cc3c(cc1N(C)CC2)OCO3` (stereo not drawn): the TGI in the assay with DMS 114 small cell lung was over 21.9 µM; with DMS 273 small cell lung, 13 µM; in the assay on HCC-2998 colon it was 19.5 µM; in the assay on KM20L2 colon, 26.9 µM; in the assay with LXFL 529 NSCLC, over 95.6 µM; in the assay on RPMI-8226 leukemia, over 33.9 µM. Also, the TGI in the assay with RXF 393 renal was determined as 9.48 µM; in the assay on SK-MEL-28 melanoma, 45.8 µM; in the assay with SNB-78 CNS, 42.3 µM; in the assay with XF 498 CNS it was 20.4 µM.

On to `CCN(CC)c1nc(N(C)C)c2cc(OC)ccc2n1`, for which the TGI in the assay with HCC-2998 colon is 46.4 µM; with RPMI-8226 leukemia it was 61.2 µM; in the assay on RXF 393 renal it was over 100 µM; with SK-MEL-28 melanoma it was over 100 µM.

Take `O=C(c1ccccc1)c1c(CNCc2ccccc2)n(C(=O)c2ccccc2)c2ccccc12`: the TGI in the assay on DMS 114 small cell lung was over 100 µM; in the assay with DMS 273 small cell lung, over 100 µM; in the assay on HCC-2998 colon it was over 100 µM; in the assay with KM20L2 colon, over 100 µM; in the assay on LXFL 529 NSCLC, over 100 µM; with RPMI-8226 leukemia, 55.1 µM. Also, the TGI with SK-MEL-28 melanoma and with XF 498 CNS was over 100 µM in each case.
